The results in this text go back to ChEMBL document CHEMBL1201862, “PubChem BioAssay data set” (2004).

Active and inactive are the calls of the source.

Experiment [1] has as its system P388. Kind of experiment: cells. It is filed as functional. As to conditions: Mus musculus.
The subject of experiment [2] is P388/ADR. Kind of experiment: cells. It is filed as functional. The following applies: Mus musculus.
The test system of experiment [3] is SN12K1. Kind of experiment: cells. The format is functional. The following applies: Homo sapiens.
The nature of experiment [4]: off-target signal loss in HeLa-CEM21 co-culture – HeLa F-luc CTL cells, cherry-picked, counter-screen for HIV-1 Env fusion inhibitor project, dose response (AID 652040).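 Note: potency for signal decrease marking cytotoxic or nonspecific inhibition.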 It is filed as functional, cell-based. For orientation: The purpose of a counterscreen is to sort out artefacts and off-target activity.
The nature of experiment [5]: inhibitors of HIV Env-driven cell fusion, dose response, cherry-pick (AID 652057). It is filed as functional, cell-based.
Experiment [6] can be described thus: inhibitors of clade B AD8 Env fusion, dose response, cell-based, cherry-pick (AID 652062).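 Note: luciferase signal from cell-cell fusion driven by HIV-1 clade B AD8 Env; potency is for inhibitors of fusion seen as a drop in luminescence.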 The format is functional.
The nature of experiment [7]: CEM21 lymphoblast cell cytotoxicity, dose response, cytotoxicity control for viral fusion inhibitor project, CellTiter-Glo luminescence, cherry-picked (AID 652042).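 Note: potency for signal decrease meaning cytotoxicity.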 It is filed as functional, cell-based. In general terms: ATP-based viability assays read luminescence as a measure of living cells.
Experiment [8] is described as follows: HepG2 cell cytotoxicity, dose response, cytotoxicity control, cherry-picked samples (AID 1159577). It is filed as functional, cell-based.
Experiment [9] in a line: P. falciparum Dd2 growth inhibitors, dose response, SYBR Green, cherry-picked samples (AID 1159567). It is filed as functional, cell-based.
Experiment [10] can be described thus: cytotoxicity in HEK-293T cells, dose response, cytotoxicity control for BCR NF-kB inhibitor project, luminescence, B-cell screen hits (AID 489021).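 Note: HEK-293T cells carrying an NF-kB luciferase reporter; cells exposed to compound for about 14 hours before viability readout.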 The format is functional, cell-based.
The target in experiment [11] is T1, Calpain-2 catalytic subunit (Sus scrofa, UniProt P43367).
T1 sequence (P43367 whole entry): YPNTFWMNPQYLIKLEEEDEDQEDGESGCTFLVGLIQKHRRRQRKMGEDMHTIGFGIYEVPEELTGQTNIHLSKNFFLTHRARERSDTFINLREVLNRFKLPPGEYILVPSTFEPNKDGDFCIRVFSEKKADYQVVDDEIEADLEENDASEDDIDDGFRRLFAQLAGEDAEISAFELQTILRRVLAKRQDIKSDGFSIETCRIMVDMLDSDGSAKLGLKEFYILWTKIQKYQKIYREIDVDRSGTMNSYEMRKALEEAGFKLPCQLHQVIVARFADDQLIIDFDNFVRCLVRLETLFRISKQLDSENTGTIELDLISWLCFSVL
Kind of experiment: pig calpain II inhibitor potency, dose response, biochemical, fluorogenic peptide substrate (AID 1420). It is filed as functional.

Experiment [12] is described as follows: A cytotoxicity screen of small molecule inhibitors of the PhoP region in Salmonella typhi identified in the primary screen. [Related pubchem assays: 1850, 1864, 1985 ]. The format is functional.
The nature of experiment [13]: ZM109 Env clade C HIV-1 fusion inhibitors, dose response, HeLa effector, CEM target cells, luciferase, cherry-pick (AID 652058). It is filed as functional, cell-based.
Experiment [14] relates to HEK293. Kind of experiment: inhibitors of LMP1-driven NF-kB reporter, dose response, cell-based, HEK293, luciferase, cherry-pick (AID 588343). It is filed as functional. The following applies: Homo sapiens.
Experiment [15] concerns the target Photoreceptor-specific nuclear receptor (Homo sapiens, UniProt Q9Y5X4). The format is functional, cell-based.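 Note: CHO-S cells with Gal4-NCOR and VP16-NR2E3 two-hybrid luciferase reporter.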
Experiment [16] has as its system BJ. Kind of experiment: cytotoxicity toward BJ-TERT-LT-ST fibroblasts, dose response, cell-based, RAS-independent, luminescence (AID 1935).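 Note: BJ fibroblasts immortalized with TERT plus LT and ST oncogenes.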 The format is functional. The following applies: Homo sapiens.
For experiment [17], the system named is BJ. Kind of experiment: cytotoxicity toward BJ-TERT fibroblasts, dose response, cell-based, RAS-independent, luminescence (AID 1933). The following applies: Homo sapiens. It is filed as functional.
For experiment [18], the system named is BJ. Kind of experiment: cells. The format is functional, cell-based. The following applies: Homo sapiens.
The nature of experiment [19]: cytotoxicity toward DRD oncogenic fibroblasts, dose response, cell-based, non-viral oncogenic, luminescence (AID 1934). The following applies: Homo sapiens. It is filed as functional.
Experiment [20] is described as follows: HepG2 cell cytotoxicity, dose response, cytotoxicity control, plate reader, cherry-pick, antagonist series (AID 743416). The format is functional, cell-based.
Experiment [21] is described as follows: MC4R antagonists, dose response, counter-screen for LGR2 antagonist project, cell-based, plate reader, cherry pick (AID 743444).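 Note: transfected HEK 293 cells stimulated with alpha-MSH peptide; potency of inhibitors of the alpha-MSH evoked signal.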 It is filed as functional.
Experiment [22] in a line: LGR2 antagonists, dose response, cell-based, HEK293, CRE-luciferase reporter, cherry pick, set 2 (AID 743343).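 Note: transfected cells were stimulated with diluted bursicon conditioned medium after compound addition.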 It is filed as functional.
Experiment [23] can be described thus: HEK293 cell cytotoxicity, dose response, cytotoxicity control, plate reader, cherry-picked samples (AID 743446). It is filed as functional, cell-based.
Experiment [24] in a line: A549 cell cytotoxicity, dose response, cytotoxicity control, plate reader, cherry-pick, antagonist series (AID 743412). The format is functional, cell-based.
Experiment [25] is described as follows: THP-1 cell cytotoxicity, dose response, cytotoxicity control for Vif-APOBEC3G degradation inhibitor project, THP-1 cells (AID 1117359). It is filed as functional. As to conditions: Human immunodeficiency virus 1, THP-1.

Photoreceptor-specific nuclear receptor, sequence (Q9Y5X4 whole entry, the tested form may be a part): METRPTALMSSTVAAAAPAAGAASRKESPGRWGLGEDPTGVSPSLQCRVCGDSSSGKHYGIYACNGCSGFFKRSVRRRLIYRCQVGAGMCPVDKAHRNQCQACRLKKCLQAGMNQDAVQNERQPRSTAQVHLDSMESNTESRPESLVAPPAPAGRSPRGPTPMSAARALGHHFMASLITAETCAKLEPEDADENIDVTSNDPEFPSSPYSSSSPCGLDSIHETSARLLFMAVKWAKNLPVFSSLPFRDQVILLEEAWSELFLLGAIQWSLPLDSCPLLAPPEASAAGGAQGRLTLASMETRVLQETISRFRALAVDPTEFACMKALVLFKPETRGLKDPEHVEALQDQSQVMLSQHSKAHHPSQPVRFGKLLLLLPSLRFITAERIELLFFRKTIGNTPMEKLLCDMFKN

The GI50 is the concentration at which growth is held to half of that of the control. On to `COc1c2ccoc2c(S(=O)(=O)Nc2ccc(Cl)cc2)c2oc(C)cc(=O)c12`, for which the GI50 in [1] is 69.3 µM (inactive); in [2], 72.4 µM (inactive); in experiment [3], > 100 µM (inactive).
A word on the AC50: it is the midpoint of the concentration-response curve, whichever way the signal moves. Turning to `COc1cccc(CN2CCC2(C)C(=O)Nc2cccc(Oc3ccccc3)c2)c1OC` (stereo not given), the AC50 is > 70 µM (inactive) in [4], 3.47 µM (active) in [5], 20.4 µM (active) in [6] and 61.8 µM (active) in experiment [7].
On to `Cc1cccc(-c2ccc([C@H]3[C@H]4CN(CCC(F)(F)F)CCCCN4[C@H]3CO)cc2)c1`, for which the AC50 in [8] was 9.1 µM (active); in experiment [9] it was 1.08 µM (active).
For orientation: IC50 means the concentration needed to halve the response being measured. On to `CNC(=O)CSc1nc2nn(-c3ccccc3)c(=O)c-2c2n1CCCCC2`, for which, in experiment [10], the IC50 is > 80 µM (inactive).
As for `O=C(O)CCCCCCC[C@@H]1S[C@H]1CCCCCCO`, the GI50 in experiment [1], in experiment [2] and in experiment [3] was > 100 µM (inactive) each time.
For `O=S(=O)(c1ccc(F)cc1)N1CCCCN2[C@H](CO)[C@H](c3ccc(-c4ccccc4F)cc3)[C@H]2C1`, the values for the AC50 in experiment [8] and in experiment [9] were 11 µM (active) and 1.97 µM (active), respectively.
Consider `CCCc1nc(SCC(=O)c2ccccc2)c2c(=O)n(C)c(=O)n(C)c2n1`, for which the IC50 in experiment [11] is 7.89 µM (active).
Usually EC50 stands for the concentration that produces a half-maximal response. For the compound `Cc1nc2nc(COc3ccccc3)nn2c(C)c1Cl`, the EC50 in experiment [12] was > 50 µM (active).
Regarding `CCCCCCCCCCCCCCCC(=O)OCC1OC(n2ccc(N)nc2=O)C(O)C1O` (stereo not given), the AC50 in experiment [4] is 0.44 µM (active); in [5], 0.557 µM (active); in experiment [6], 0.922 µM (active); in [7], 24 µM (active); in experiment [13] it was < 0.26 µM (active).
For `CCCCCCCCN1C(=O)[C@H](CC(=O)NCCCC)C[C@@]2(C(=O)OCC)CCCC=C12`, in that order: 66.4 µM (active), 7.2 µM (active), 16.3 µM (active), 37.5 µM (active) and 23.2 µM (active).
In the case of `CCC(=O)N(Cc1cc2cc(OC)ccc2nc1O)c1ccc(C)cc1C`, the EC50 in experiment [12] was > 50 µM (active).
Regarding `COCCn1c(C)cc(C(=O)COc2ccc(C)nc2[N+](=O)[O-])c1C`, the AC50 in experiment [14] is 9.91 µM (active). The IC50 in experiment [15] was 5.55 µM (active).
With `CC(CCc1ccccc1)NC(=O)COC(=O)c1ccc(NC(=O)CC#N)cc1` (stereo not given), the EC50 in [16] is > 150 µM (inconclusive); in experiment [17] it was > 150 µM (not active); in experiment [18], > 150 µM (not active); in experiment [19], > 150 µM (not active).
In the case of `O=C(c1cc(-c2ccccc2Cl)nc2ccc(Br)cc12)N1CCN(c2ccccn2)CC1`, the AC50 in experiment [20] was 50.3 µM (active); in [21] it was 29.2 µM (active); in experiment [22], 28.3 µM (active); in experiment [23] it was 22.8 µM (active); in [24], 34.5 µM (active).
The CC50 is the concentration that lowers cell viability or growth by half. For `O=C1/C(=C/c2ccco2)SC(=S)N1C1CCS(=O)(=O)C1` (stereo not given), the CC50 in experiment [25] is > 40 µM (active).
